≈ marks a conversion by molar mass, not a printed value.
tested on: M. tuberculosis NTB1 (DprE1 C387S mutant); format: cell-based, Mycobacterium tuberculosis

Compound | MIC99 NTB1 [µg/mL]
O=c1nc(N2CCN(CC3CCCCC3)CC2)sc2c([N+](=O)[O-])cc(C(F)(F)F)cc12 [PBTZ169, macozinone, reference compound] | >100
CCCCS(=O)(=O)N1CCN(c2nc(=O)c3cc(C(F)(F)F)cc([N+](=O)[O-])c3s2)CC1 [compound 11626093] | >100
CO[C@H]1/C=C/O[C@@]2(C)Oc3c(C)c(O)c4c(O)c(c(/C=N/N5CCN(C)CC5)c(O)c4c3C2=O)NC(=O)/C(C)=C\C=C\[C@H](C)[C@H](O)[C@@H](C)[C@@H](O)[C@@H](C)[C@H](OC(C)=O)[C@@H]1C [Rifampin, reference compound] | 0.0008 (≈ 0.000972 µM)
O=c1nc(N2CCN(S(=O)(=O)C3CC3)CC2)sc2c([N+](=O)[O-])cc(C(F)(F)F)cc12 [compound 11626091] | 14.7 (≈ 31.7 µM)
O=c1nc(N2CCN(S(=O)(=O)c3cccc4cnccc34)CC2)sc2c([N+](=O)[O-])cc(C(F)(F)F)cc12 [compound 11626094] | >100
CCS(=O)(=O)N1CCN(c2nc(=O)c3cc(C(F)(F)F)cc([N+](=O)[O-])c3s2)CC1 [compound 11626092] | 25.1 (≈ 55.5 µM)
CS(=O)(=O)N1CCN(c2nc(=O)c3cc(C(F)(F)F)cc([N+](=O)[O-])c3s2)CC1 [compound 11626095] | 75 (≈ 171 µM)
O=c1nc(N2CCN(S(=O)(=O)C3CCCCC3)CC2)sc2c([N+](=O)[O-])cc(C(F)(F)F)cc12 [compound 11326127] | >100
O=c1nc(N2CCN(S(=O)(=O)c3cccs3)CC2)sc2c([N+](=O)[O-])cc(C(F)(F)F)cc12 [compound 11326059] | >100

— paper PMC6153800, “Structure-Based Drug Design and Characterization of Sulfonyl-Piperazine Benzothiazinone Inhibitors of DprE1 from Mycobacterium tuberculosis” (Antimicrobial Agents and Chemotherapy, 2018)
